These results are taken from patent publication US4525358A, “2-[4-(Diphenylmethyl)-1-piperazinyl]-acetic acids and their amides” (UCB Pharmaceuticals, Inc., priority 1981, dated 1985).

Assay [1] relates to passive cutaneous anaphylaxis. The assay can be described thus: passive cutaneous anaphylaxis test (PCA), antiallergic activity. Particulars: rats; for antiallergic activity (PCA), in words / ED50: per os; for ED50: Rattus norvegicus, po, read-out: ID 50 per os (reduction of 50% of the surface area of the colored spot). It is filed as in vivo. On the procedure:
This activity is determined in rats by means of the passive cutaneous anaphylaxis test (PCA) (see J. GOOSE and A. M. J. N. BlAIR, Immunology, 16, (1969), 749-760; and […] and D. ROEMER, Arzneimittel-Forschung, 28, (5), (1978), 770-782). Female rats are used, the sides of which have been partly shaved. Into the zone thus shaved there is injected intradermally, for passive sensitization of the animals, 0.05 ml of IGE antiovalbumin serum at a dilution such that, at the time of the PCA test, a distinct spot with a surface area of about 100 mm^2 appears at the point of injection. […] At the point of intradermal injection, there appears a distinct blue spot, the surface of which is measured. In order to test the activity of the compounds according to the present invention, the procedure is carried out in the same manner; however, the test compound is administered orally 72 hours after injection of the serum; 15 minutes after this administration, 0.25 ml of the solution of the allergen is injected intravenously; 30 minutes after the administration of the allergen, the surface of the blue spot is measured.

The conditions of assay [2]: intravenous; cited from earlier work.
Assay [3] relates to bronchospasms induced by histamine. Briefly: inhibition of histamine-induced bronchospasms (Konzett and Roessler), antihistaminic activity. It is filed as in vivo, guinea pig. Particulars: guinea pig, intravenous, histamine; for ED50: Cavia porcellus, iv, read-out: ID 50, inhibition of bronchospasms induced by histamine. The procedure: (§1) Anaesthetized and curarized guinea pigs are subjected to artificial ventilation. The endotracheal pressure is recorded. Repetitive bronchial spasms are induced by successive and progressive intravenous injections of serotonin and histamine, respectively. The test compounds are also administered intravenously.

In assay [4] the test system is bronchospasms induced by serotonin. The assay can be described thus: inhibition of serotonin-induced bronchospasms (Konzett and Roessler), spasmolytic activity. Particulars: guinea pig, intravenous, serotonin; for ED50: Cavia porcellus, iv, read-out: ID 50, inhibition of bronchospasms induced by serotonin. The format is in vivo, guinea pig. The procedure:
as §1

The conditions of assay [5]: J. med. Chem. 11 (1968), 390-391; cited from earlier work.
The conditions of assay [6]: Belgian Patent Specification No. 763,609; cited from earlier work.

In the case of `O=C(O)c1cc(=O)c2c(OCC(O)COc3cccc4oc(C(=O)O)cc(=O)c34)cccc2o1` [sodium cromoglycate], the “ID 50 per os (reduction of 50% of the surface area of the colored spot)” value in assay [1] (15 minutes before allergen) was “inactive”. Besides, the “antiallergic activity (PCA), in words” value in assay [1] was “inactive”. Also, the antiasthmatic activity entry in assay [2] was “well known for its antiasthmatic activity”.
Turning to `NC(=O)CN1CCN(C(c2ccccc2)c2ccc(Cl)cc2)CC1` (centres unmarked) [Compound 2, 2-[4-[(4-chlorophenyl)phenylmethyl]-1-piperazinyl]-acetamide, reference compound], the ED50 in assay [3] was 3.1 µmol/kg; in assay [1] (15 minutes before allergen) it was greater than 320 µmol/kg; in assay [4] it was 11 µmol/kg. Further, the “activity with regard to bronchospasms induced by histamine (antihistaminic), in words” value in assay [3] is “considerbly less active”. In addition, the “antiallergic activity (PCA), in words” value in assay [1] is reported as “of little interest”. The “activity with regard to bronchospasms induced by serotonin (antispasmodic), in words” value in assay [4] is given as “considerbly less active”. In addition, the “activity as a hypocholesteremic agent” value in assay [5] is recorded as “not very encouraging”.
For the compound `NC(=O)CN1CCN(C(c2ccccc2)c2ccccc2)CC1` [Compound 1, 2-[4-(diphenylmethyl)-1-piperazinyl]-acetamide, reference compound], in assay [3], the ED50 was 2.1 µmol/kg and the “activity with regard to bronchospasms induced by histamine (antihistaminic), in words” value was “considerbly less active”. Moreover, the ED50 in assay [1] (15 minutes before allergen) is greater than 320 µmol/kg. The “antiallergic activity (PCA), in words” value in assay [1] was “of little interest”. Further, in assay [4], the ED50 is 77 µmol/kg and the “activity with regard to bronchospasms induced by serotonin (antispasmodic), in words” value was “considerbly less active”. In addition, the diuretic activity entry in assay [6] is “possesses a diuretic activity”.
